Experimental data published in patent US9963442B2, “Pyridones as herbicides” (E I DU PONT DE NEMOURS AND COMPANY, priority 2014, dated 2018).

Key:
Assay type in all cases: in vivo
[1] = system: pigweed (Amaranthus retroflexus); experiment: Test A postemergence application; conditions: approx. 10 days
Excerpt: (§1) Seeds of plant species selected from barnyardgrass (Echinochloa crus-galli), kochia (Kochia scoparia), ragweed (common ragweed, Ambrosia elatior), Italian ryegrass (Lolium multiflorum), giant foxtail (Setaria faberii), and pigweed (Amaranthus retroflexus) were planted into a blend of loam soil and sand and treated preemergence with a directed soil spray using test chemicals formulated in a non-phytotoxic solvent mixture which included a surfactant. At the same time, plants selected from these weed species and also wheat (Triticum aestivum), corn (Zea mays), blackgrass (Alopecurus myosuroides), and galium (catchweed bedstraw, Galium aparine) were planted in pots containing the same blend of loam soil and sand and treated with postemergence applications of test chemicals formulated in the same manner. Plants ranged in height from 2 to 10 cm and were in the one- to two-leaf stage for the postemergence treatment. Treated plants and untreated controls were maintained in a greenhouse for approximately 10 days, after which time all treated plants were compared to untreated controls and visually evaluated for injury. Plant response ratings, summarized in Table A, are based on a 0 to 100 scale where 0 is no effect and 100 is complete control. A dash (-) response means no test result.

[2] = system: barnyardgrass (Echinochloa crus-galli); experiment: Test A postemergence application; conditions: approx. 10 days
Excerpt: as §1

corn (Zea mays) = experiment: Test A postemergence application; conditions: approx. 10 days
Excerpt: as §1

[3] = system: wheat (Triticum aestivum); experiment: Test A postemergence application; conditions: approx. 10 days
Excerpt: as §1

[4] = system: galium (catchweed bedstraw, Galium aparine); experiment: Test A postemergence application; conditions: approx. 10 days
Excerpt: as §1

[5] = system: Italian ryegrass (Lolium multiflorum); experiment: Test A postemergence application; conditions: approx. 10 days
Excerpt: as §1

[6] = system: blackgrass (Alopecurus myosuroides); experiment: Test A postemergence application; conditions: approx. 10 days
Excerpt: as §1

kochia (Kochia scoparia) [7] = experiment: Test A postemergence application; conditions: approx. 10 days
Excerpt: as §1

[8] = system: giant foxtail (Setaria faberii); experiment: Test A postemergence application; conditions: approx. 10 days
Excerpt: as §1

[9] = system: ragweed (common ragweed, Ambrosia elatior); experiment: Test A postemergence application; conditions: approx. 10 days
Excerpt: as §1

[10] = system: pigweed (Amaranthus retroflexus); experiment: Test A preemergence, directed soil spray; conditions: approx. 10 days
Excerpt: as §1

[11] = system: barnyardgrass (Echinochloa crus-galli); experiment: Test A preemergence, directed soil spray; conditions: approx. 10 days
Excerpt: as §1

[12] = system: Italian ryegrass (Lolium multiflorum); experiment: Test A preemergence, directed soil spray; conditions: approx. 10 days
Excerpt: as §1

kochia (Kochia scoparia) [13] = experiment: Test A preemergence, directed soil spray; conditions: approx. 10 days
Excerpt: as §1

[14] = system: giant foxtail (Setaria faberii); experiment: Test A preemergence, directed soil spray; conditions: approx. 10 days
Excerpt: as §1

[15] = system: ragweed (common ragweed, Ambrosia elatior); experiment: Test A preemergence, directed soil spray; conditions: 125 g ai/ha, approx. 10 days
Excerpt: as §1

[16] = system: barnyardgrass (Echinochloa crus-galli); experiment: Test B flooded paddy test; parameters: key: 0 = no effect, 100 = complete control; conditions: Flood, 250 g ai/ha applied to paddy water at 2-leaf stage; visually evaluated after 13 to 15 days; scale 0 (no effect) to 100 (complete control)
Experimental: (§2) Plant species in the flooded paddy test selected from rice (Oryza sativa), sedge, umbrella (small-flower umbrella sedge, Cyperus difformis), ducksalad (Heteranthera limosa), and barnyardgrass (Echinochloa crus-galli) were grown to the 2-leaf stage for testing. At time of treatment, test pots were flooded to 3 cm above the soil surface, treated by application of test compounds directly to the paddy water, and then maintained at that water depth for the duration of the test. Treated plants and controls were maintained in a greenhouse for 13 to 15 days, after which time all species were compared to controls and visually evaluated. Plant response ratings, summarized in Table B, are based on a scale of 0 to 100 where 0 is no effect and 100 is complete control. A dash (-) response means no test result.

[17] = system: sedge, umbrella (small-flower umbrella sedge, Cyperus difformis); experiment: Test B flooded paddy test; parameters: key: 0 = no effect, 100 = complete control; conditions: Flood, 250 g ai/ha applied to paddy water at 2-leaf stage; visually evaluated after 13 to 15 days; scale 0 (no effect) to 100 (complete control)
Experimental: as §2

[18] = system: ducksalad (Heteranthera limosa); experiment: Test B flooded paddy test; parameters: key: 0 = no effect, 100 = complete control; conditions: Flood, 250 g ai/ha applied to paddy water at 2-leaf stage; visually evaluated after 13 to 15 days; scale 0 (no effect) to 100 (complete control)
Experimental: as §2

rice (Oryza sativa) = experiment: Test B flooded paddy test; parameters: key: 0 = no effect, 100 = complete control; conditions: Flood, 250 g ai/ha applied to paddy water at 2-leaf stage; visually evaluated after 13 to 15 days; scale 0 (no effect) to 100 (complete control)
Experimental: as §2

O=c1cccc(Oc2ncc(Cl)cn2)n1-c1ccc(F)cn1 [Compound 9]
Plant response rating (0 to 100 scale, 0 no effect, 100 complete control), Pigweed ([1]; 31 g ai/ha): 50 | Plant response rating (0 to 100 scale, 0 no effect, 100 complete control), Pigweed ([1]; 125 g ai/ha): 80 | Plant response rating (0 to 100 scale, 0 no effect, 100 complete control), Barnyardgrass ([2]; 31 g ai/ha): 0 | Plant response rating (0 to 100 scale, 0 no effect, 100 complete control), Barnyardgrass ([2]; 125 g ai/ha): 10 | Plant response rating (0 to 100 scale, 0 no effect, 100 complete control), Corn (corn (Zea mays); 31 g ai/ha): 10 | Plant response rating (0 to 100 scale, 0 no effect, 100 complete control), Corn (corn (Zea mays); 125 g ai/ha): 10 | Plant response rating (0 to 100 scale, 0 no effect, 100 complete control), Wheat ([3]; 31 g ai/ha): 0 | Plant response rating (0 to 100 scale, 0 no effect, 100 complete control), Wheat ([3]; 125 g ai/ha): 0 | Plant response rating (0 to 100 scale, 0 no effect, 100 complete control), Galium ([4]; 31 g ai/ha): 30 | Plant response rating (0 to 100 scale, 0 no effect, 100 complete control), Galium ([4]; 125 g ai/ha): 60 | Plant response rating (0 to 100 scale, 0 no effect, 100 complete control), Ryegrass, Italian ([5]; 31 g ai/ha): 0 | Plant response rating (0 to 100 scale, 0 no effect, 100 complete control), Ryegrass, Italian ([5]; 125 g ai/ha): 20 | Plant response rating (0 to 100 scale, 0 no effect, 100 complete control), Blackgrass ([6]; 31 g ai/ha): 0 | Plant response rating (0 to 100 scale, 0 no effect, 100 complete control), Blackgrass ([6]; 125 g ai/ha): 10 | Plant response rating (0 to 100 scale, 0 no effect, 100 complete control), Kochia (kochia (Kochia scoparia) [7]; 31 g ai/ha): 70 | Plant response rating (0 to 100 scale, 0 no effect, 100 complete control), Kochia (kochia (Kochia scoparia) [7]; 125 g ai/ha): 90 | Plant response rating (0 to 100 scale, 0 no effect, 100 complete control), Foxtail, Giant ([8]; 31 g ai/ha): 0 | Plant response rating (0 to 100 scale, 0 no effect, 100 complete control), Foxtail, Giant ([8]; 125 g ai/ha): 20 | Plant response rating (0 to 100 scale, 0 no effect, 100 complete control), Ragweed ([9]; 31 g ai/ha): 20 | Plant response rating (0 to 100 scale, 0 no effect, 100 complete control), Ragweed ([9]; 125 g ai/ha): 40 | Plant response rating (0 to 100 scale, 0 no effect, 100 complete control), Pigweed ([10]; 31 g ai/ha): 50 | Plant response rating (0 to 100 scale, 0 no effect, 100 complete control), Pigweed ([10]; 125 g ai/ha): 80 | Plant response rating (0 to 100 scale, 0 no effect, 100 complete control), Barnyardgrass ([11]; 31 g ai/ha): 0 | Plant response rating (0 to 100 scale, 0 no effect, 100 complete control), Barnyardgrass ([11]; 125 g ai/ha): 0 | Plant response rating (0 to 100 scale, 0 no effect, 100 complete control), Ryegrass, Italian ([12]; 31 g ai/ha): 0 | Plant response rating (0 to 100 scale, 0 no effect, 100 complete control), Ryegrass, Italian ([12]; 125 g ai/ha): 0 | Plant response rating (0 to 100 scale, 0 no effect, 100 complete control), Kochia (kochia (Kochia scoparia) [13]; 31 g ai/ha): 20 | Plant response rating (0 to 100 scale, 0 no effect, 100 complete control), Kochia (kochia (Kochia scoparia) [13]; 125 g ai/ha): 50 | Plant response rating (0 to 100 scale, 0 no effect, 100 complete control), Foxtail, Giant ([14]; 31 g ai/ha): 10 | Plant response rating (0 to 100 scale, 0 no effect, 100 complete control), Foxtail, Giant ([14]; 125 g ai/ha): 70 | Plant response rating (0 to 100 scale, 0 no effect, 100 complete control), Ragweed [15]: 70 | Plant response rating, Barnyardgrass [16]: 0 | Plant response rating, Sedge, Umbrella [17]: 40 | Plant response rating, Ducksalad [18]: 60 | Plant response rating, Rice (rice (Oryza sativa)): 0
